{
  "source": "patent US11351130B2",
  "about": "“Prevention and reversal of inflammation induced DNA damage” (Indiana University Research and Technology Corporation, priority 2017, dated 2022)",
  "key": {"NFκB": {"tested_on": "NFκB", "assay": "NF-κB luciferase reporter transactivation assay", "assay_type": "cell-based", "settings": "read-out: inhibition of NFκB binding to the reporter construct, IC50", "description": "Reporter assays were performed as previously described (Georgiadis et al., 2008; Kelley et al., 2011; Cardoso et al., 2012b; Luo et al., 2012). Cells were transfected with NF-κB-Luciferase construct containing an NF-κB-response promoter and driving the expression of a luciferase gene and a Renilla luciferase control reporter vector pRL-CMV. After a 24-hour transfection period, cells were lysed, and Firefly and Renilla luciferase activities were assayed using Renilla luciferase activity for normalization. All of the transfection experiments were performed in triplicate and repeated at least three times in independent experiments. Data are expressed as mean±standard error from a representative experiment, and Student's t tests were performed."}, "[1]": {"tested_on": "sensory neurons in culture", "assay_type": "cell-based, rat", "description": "Primary cultures of sensory neurons were harvested and maintained as previously described (Vasko et al., 2005). Briefly, adult male Sprague-Dawley rats (150-175 g; Harlan, Indianapolis, Ind.) were euthanized by CO2 asphyxiation and dorsal root ganglia (DRG) dissected from all spinal levels, transferred to into a collagenase solution (1 mg/ml), incubated for 1 hour at 37° C., then dissociated by mechanical agitation. Approximately 30,000 cells or 60,000 cells were plated into each well of 12-well or 6-well culture plates, respectively. All culture dishes were precoated with poly-D-lysine and laminin. Cells were maintained in F-12 media supplemented with 10% horse serum, 2 mM glutamine, 100 μg/ml Normocin™, 50 μg/ml penicillin, 50 μg/ml streptomycin, 50 μM 5-fluoro-2′-deoxyuridine (Invitrogen), 150 μM uridine, and 30 ng/ml of NGF in 3% CO2 at 37° C. Growth medium was changed every other day. Experiments were performed after cells were maintained in culture for 12-14 days.\nFor release experiments, cell cultures were washed with HEPES buffer consisting of (in mM) 25 HEPES, 135 NaCl, 3.5 KCl, 2.5 CaCl2, 1 MgCl2, 3.3 D-glucose, and 0.1% bovine serum albumin, pH 7.4 and maintained at 37° C. They then were incubated for successive 10-minute intervals with 0.4 ml of HEPES buffer alone (basal release), with buffer containing 30 nM capsaicin, then with buffer alone (to assess return to basal release). After each incubation, the buffer was removed and the amount of immunoreactive calcitonin-gene related peptide (CGRP) in each sample was measured using radioimmunoassay (RIA) as previously described (Chen et al., 1996). At the end of the release protocol, CGRP is extracted from the cultures and total content measured using RIA."}, "[2]": {"tested_on": "neuronal cultures derived from DRG", "assay": "pH2A.X immunoblotting in DRG neuronal cultures (Example 1)", "assay_type": "cell-based, rat", "description": "Dorsal root ganglia (DRG) were dissected from all spinal levels of adult male (150-175 g) Sprague-Dawley rats (Envigo, Indianapolis, Ind.) and the cells were dissociated as previously described (Kelley et al., 2014). Briefly, the rats were euthanized by CO2 asphyxiation. DRGs were transferred into collagenase solution (1 mg/ml) and incubated for 1 hour at 37° C. The digested DRGs were then rinsed with growth medium, centrifuged and dissociated by mechanical agitation. Approximately 30,000 cells were plated into each well of 12-well culture plates. All culture dishes were precoated with poly-D-lysine and laminin. Cells were maintained in F-12 media supplemented with 10% horse serum, 2 mM glutamine, 100 μg/ml Normocin, 50 μg/ml penicillin, 50 μg/ml streptomycin, 50 μM 5-fluoro-2′-deoxyuridine, 150 μM uridine, and 30 ng/ml of NGF in 3% CO2 at 37° C. Growth medium was changed every other day.\nSmall interfering RNAs to APE1 (APE1siRNA) and scrambled siRNA (SCsiRNA) controls were used to decrease APE1 protein expression in sensory neuronal cell cultures and as controls, respectively, as described previously (Vasko et al., 2005, Jiang et al., 2008a). On day 3 in culture, the growth media was replaced with 0.5 ml of Opti-MEM 1 media containing 100 nM of APE1siRNA (5′-[…]-3′ (SEQ ID NO:1)) or SCsiRNA (5′-[…]-3′(SEQ ID NO:2)); (Vasko et al., 2005)) and 10 μl of the transfecting reagent, Neuroporter. On the next day, 0.5 ml of the growth media without antibiotics was added to each well, and after an additional 24 hours the media containing siRNA was replaced with normal growth media.\nLentiviral constructs containing (1) the CMV promoter, HA-tagged APE1, IRES, and enhanced green fluorescent protein (EGFP); or (2) CMV, IRES, and EGFP were developed. DNA sequencing confirmed the constructs in the pLenti6-R4R2-V5 plasmid containing WT-, C65-, or 226+177-APE1-IRES-EGFP. For lentiviral infections, DRG cells were cultured 5 days before 150 pfu/cell of the lentivirus was added to the media. Two days later, the virus was removed and the cells grown an additional 5 days in regular media.\nTissues or cells were harvested, lysed in RIPA buffer (Santa Cruz Biotechnology; Santa Cruz, Calif., USA), sonicated, and cleared of cellular debris by centrifuging at 4000 RPM for 2 minutes. Protein was quantified using Lowry assay, and electrophoresed in a 12% SDS-polyacrylamide gel. After electrophoresis, proteins were transferred to a PVDF membrane, and blocked with Tris-buffered saline containing 0.1% Tween-20 (TBST) and 5% nonfat dry milk for 1 hour at room temperature while gently agitating. Mouse monoclonal antihuman Ape1 antibodies (1:1000), mouse monoclonal anti-phospho H2AX antibodies (1:1000), mouse monoclonal anti-vinculin antibody (1:1000), and anti-Hemagglutinin (HA) antibody were added to the blocking solution and incubated for 2 hours at room temperature while gently agitating. Antibody binding was detected following appropriate secondary antibody methods using chemiluminescence. The density of the bands was measured using Quantity One software from Bio-Rad (Hercules, Calif.) and data expressed as density normalized to vinculin."}, "Ref-1/APE1 [3]": {"molecular_target": "T1, Ref-1/APE1 (Rattus norvegicus, UniProt P43138)", "T1 construct": "When isolated sensory neurons were exposed to APX3330; endogenous in cells; host or cells: isolated sensory neurons", "T1 sequence (P43138 whole entry)": "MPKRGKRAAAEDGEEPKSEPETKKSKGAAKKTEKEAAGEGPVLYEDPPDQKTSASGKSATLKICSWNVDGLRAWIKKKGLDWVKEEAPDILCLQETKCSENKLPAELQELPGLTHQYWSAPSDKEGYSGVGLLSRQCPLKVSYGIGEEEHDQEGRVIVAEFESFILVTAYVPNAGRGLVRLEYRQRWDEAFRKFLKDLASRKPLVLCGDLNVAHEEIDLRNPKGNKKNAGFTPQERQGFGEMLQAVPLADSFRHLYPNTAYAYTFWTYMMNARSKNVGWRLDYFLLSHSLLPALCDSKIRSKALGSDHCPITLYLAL", "assay": "Ref-1/APE1 endonuclease activity in isolated sensory neurons", "assay_type": "cell-based"}, "Ref-1/APE1 [4]": {"molecular_target": "T2, Ref-1/APE1 (Homo sapiens, UniProt P27695)", "T2 construct": "endogenous in cells", "T2 sequence (P27695 whole entry)": "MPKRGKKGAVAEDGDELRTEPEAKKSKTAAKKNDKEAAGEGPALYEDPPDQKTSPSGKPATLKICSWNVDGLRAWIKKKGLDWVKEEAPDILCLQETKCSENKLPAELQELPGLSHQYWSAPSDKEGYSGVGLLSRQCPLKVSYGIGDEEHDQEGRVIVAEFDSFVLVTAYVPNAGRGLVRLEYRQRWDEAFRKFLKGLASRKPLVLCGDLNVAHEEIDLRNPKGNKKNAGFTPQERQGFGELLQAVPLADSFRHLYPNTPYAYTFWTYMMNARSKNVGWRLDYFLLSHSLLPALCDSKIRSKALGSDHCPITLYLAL", "assay": "Ref-1/APE1 endonuclease activity in tumor cells", "assay_type": "cell-based"}, "DRG": {"tested_on": "DRG", "assay": "Cisplatin ± APX3330 in neuroblastoma tumor-bearing mice", "assay_type": "in vivo", "source_text": "Neuroblastoma cells were implanted subcutaneously into the right flanks of 6-wk old male NSG mice and allowed to proliferate until tumor volumes ≥150 mm^3. Mice were then randomized for treatment with cisplatin±APX3330 treatment."}},
  "data": [
    {"smiles": "CCCCCCCCC/C(=C\\C1=C(C)C(=O)C(OC)=C(OC)C1=O)C(=O)O", "note": "[APX3330]", "values": [
      {"measurement": "IC50", "setting": "NFκB", "result": 45, "unit": "µM"},
      {"measurement": "effect on cisplatin-induced reduction in capsaicin-evoked CGRP release", "setting": "[1]; 20 μM for 48 hours prior to and throughout exposure to 10 μM cisplatin", "result": "abolished the reduction in release"},
      {"measurement": "basal (resting) release or release of CGRP stimulated by 30 nM capsaicin, drug alone", "setting": "[1]; 72 hours, E3330 20 μM, APX2009 10 or 20 μM, compared to untreated cells", "result": "no significant change"},
      {"measurement": "effect on LPS induction of pH2A.X", "setting": "[2]; E3330 20 μM pretreatment, LPS 3 μg/ml 24 hours, SCsiRNA- and APE1siRNA-treated cultures", "result": "prevented the induction of pH2A.X"},
      {"measurement": "effect on MCP-1 induction of pH2A.X", "setting": "[2]; E3330, SCsiRNA or APE1siRNA cultures, MCP-1 0.3 μg/ml 24 hours", "result": "prevented the induction of pH2A.X by MCP-1"},
      {"measurement": "Ref-1/APE1 endonuclease activity", "setting": "Ref-1/APE1 [3]", "result": "concentration-dependent increase in Ref-1/APE1 endonuclease activity"},
      {"measurement": "Ref-1/APE1 endonuclease activity", "setting": "Ref-1/APE1 [4]", "result": "not observed in tumor cells"},
      {"measurement": "cisplatin or oxaliplatin's tumor-killing efficacy", "setting": "DRG; in vivo (data not shown)", "result": "did not affect cisplatin or oxaliplatin's tumor-killing efficacy in vivo"},
      {"measurement": "oxidative DNA damage in DRG neurons", "setting": "DRG; in vivo (data not shown)", "result": "protects DRG neurons from oxidative DNA damage"},
      {"measurement": "neurotoxicity induced by systemic administration of cisplatin", "setting": "DRG; tumor-bearing mice", "result": "attenuated neurotoxicity"}
    ]}
  ]
}
